Experimental data taken from article PMC11944621, “Synthesis, Molecular Simulation, DFT, and Kinetic Study of Imidazotriazole-Based Thiazolidinone as Dual Inhibitor of Acetylcholinesterase and Butyrylcholinesterase Enzymes” (Pharmaceuticals, 2025).
Like-named read-outs stand apart in the source and are kept apart here.

Experiments:
BChE [1] = target: T1, BChE (Homo sapiens, UniProt P06276); conditions: cited from earlier work
AChE [2] = target: T2, AChE (Homo sapiens, UniProt P22303); conditions: previously reported thiazolidinone analog; read-out: IC50 against AChE; cited from earlier work
T2 sequence (P22303 32-614): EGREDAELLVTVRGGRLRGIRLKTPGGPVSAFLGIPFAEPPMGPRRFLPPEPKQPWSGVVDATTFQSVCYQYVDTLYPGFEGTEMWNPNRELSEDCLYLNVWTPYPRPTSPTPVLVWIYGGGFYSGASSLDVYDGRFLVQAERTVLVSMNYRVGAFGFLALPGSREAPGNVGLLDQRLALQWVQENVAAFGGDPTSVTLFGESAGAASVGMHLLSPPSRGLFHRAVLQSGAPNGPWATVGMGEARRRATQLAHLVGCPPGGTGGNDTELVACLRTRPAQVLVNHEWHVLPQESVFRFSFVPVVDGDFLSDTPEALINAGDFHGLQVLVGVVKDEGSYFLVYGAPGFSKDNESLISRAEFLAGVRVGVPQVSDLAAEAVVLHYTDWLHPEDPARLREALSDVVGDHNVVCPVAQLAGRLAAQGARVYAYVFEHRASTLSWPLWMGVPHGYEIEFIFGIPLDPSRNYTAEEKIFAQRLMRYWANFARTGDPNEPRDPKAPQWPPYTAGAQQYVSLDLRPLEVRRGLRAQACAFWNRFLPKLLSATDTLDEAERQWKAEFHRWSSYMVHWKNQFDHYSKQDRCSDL

AChE [3] = target: T2, AChE; assay: biochemical; conditions: in vitro, triplicate; read-out: AchE IC50 ± SEM
Description: (§1) With some modifications, inhibitory potential against AChE and BuChE was investigated according to the reported protocol. […] Added test compound (well-1) with volume of 10 µL and a concentration of 0.5 mM followed by the addition of an enzyme of 10 µL (0.005 unit well-1). Pre-incubation of substances at 37 °C for 10 min was achieved. Reaction was started by adding 10 µL of 0.5 mM well-1 substrate (acetylthiocholine iodide/ butyrylthiochloine chloride) followed by addition of 10 µL DTNB (0.5 mM well-1). […] All experiments were performed with their respective controls in triplicate. […] The % inhibition was computed using the following equation:Inhibition (%) = Control − Test/control × 100 […]
(§2) S.2 AChE and BuChE assay protocols
(§3) With a little bit modification, inhibitory potential against AChE and BuChE was investigated according to the reported protocol. The total volume of the reaction mixture was kept at 100 µL, […]
(§4) compound (well-1) with volume of 10µL and a concentration of 0.5mM followed by the addition of an enzyme of 10 µL (0.005 unit well-1). Pre-incubation of substances at 37 °C for 10 min was achieved. Reaction was started by addition of 10µL of 0.5mM well-1 substrate (acetylthiocholine iodide/ butyrylthiochloine chloride) followed by addition of 10µL DTNB (0.5mM well-1).
(§5) Synergy HT, BioTek, US. All experiments were done with their respective controls in triplicate.
(§6) The % inhibition was computed using the following equation
(§7) Inhibition (%) = Control – Test/control x 100
(§8) Control EZ-Fit Enzyme kinetics software (Perrella Scientific Inc. Amherst, USA) was used for the calculation of IC50 values. […]

BChE [4] = target: T1, BChE; assay: biochemical; conditions: in vitro, triplicate; read-out: BChE IC50 ± SEM
Description: as §1, §2, §3, §4, §5, §6, §7, §8

enzyme = assay: Enzyme kinetics (mode of inhibition); type: biochemical
From the text: This is an in vitro approach, which measures the initial inhibition rate with the change in the inhibitor concentration.

T1 sequence (P06276 29-602): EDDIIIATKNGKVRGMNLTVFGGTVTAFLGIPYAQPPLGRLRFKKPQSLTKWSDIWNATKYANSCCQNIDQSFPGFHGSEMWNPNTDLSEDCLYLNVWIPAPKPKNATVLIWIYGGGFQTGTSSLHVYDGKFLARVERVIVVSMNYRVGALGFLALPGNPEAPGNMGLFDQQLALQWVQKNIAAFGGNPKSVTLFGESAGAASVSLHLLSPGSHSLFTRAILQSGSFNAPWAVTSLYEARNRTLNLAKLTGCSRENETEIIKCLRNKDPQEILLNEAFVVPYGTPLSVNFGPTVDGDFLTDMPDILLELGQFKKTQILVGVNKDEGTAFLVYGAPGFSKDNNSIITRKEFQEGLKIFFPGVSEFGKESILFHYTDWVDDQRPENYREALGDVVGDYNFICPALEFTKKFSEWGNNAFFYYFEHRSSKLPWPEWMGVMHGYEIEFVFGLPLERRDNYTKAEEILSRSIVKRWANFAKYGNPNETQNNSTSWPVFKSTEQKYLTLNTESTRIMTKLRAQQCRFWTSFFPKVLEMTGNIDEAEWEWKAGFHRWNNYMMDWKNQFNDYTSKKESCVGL

| Structure (SMILES) | IC50 (AChE [3]) [µM] | IC50 (BChE [4]) [µM] | other results |
| --- | --- | --- | --- |
| Cc1ccc(-c2cn(Cc3ccc4ccccc4c3)nn2)cc1C(=O)NCCN1CCOCC1 [2-methyl-N-(2-morpholinoethyl)-5-(1-(naphthalen-2-ylmethyl)-1H-1,2,3-triazol-4-yl)benzamide] |  |  | IC50 (BChE [1]; read-out: IC50 for BChE, previously reported triazole analog): 90.76 ± 0.21 µM |
| O=C1/C(=C\c2ccc(N3CCCC3)cc2)S/C(=N/N2CCOCC2)N1c1ccccc1 [(E)-2-(morpholinoimino)-3-phenyl-5-((E)-4-(pyrrolidin-1-yl)benzylidene)thiazolidin-4-one] |  |  | IC50 (AChE [2]): 17.4 ± 0.22 µM; IC50 (BChE [1]; previously reported thiazolidinone analog, read-out: IC50 against BChE): 24.4 ± 0.51 µM |
| COc1cc(-c2nnc3[nH]ccn23)ccc1N1C(=O)CSC1c1ccc(F)cc1F (stereo not shown) [Analog 3] | 8.1 ± 0.4 | 8.5 ± 0.3 |  |
| COc1cc(-c2nnc3[nH]ccn23)ccc1N1C(=O)CSC1c1ccc(C(F)(F)F)cc1 (stereo not shown) [Analog 10] | 6.7 ± 0.2 | 7.1 ± 0.1 | Mode of inhibition (enzyme kinetics) (enzyme): competitive inhibitor |
| COc1cc(-c2nnc3[nH]ccn23)ccc1N1C(=O)CSC1c1ccc(F)cc1O (stereo not shown) [Analog 11] | 8.3 ± 0.2 | 8.6 ± 0.3 |  |
